Laboratory results: patent US11447535B2, “GLP-1 analogues” (Sun Pharmaceutical Industries Limited, priority 2018, dated 2022)
Marks after values point to notes of the source that are not given here.

Key:
[1] = system: SD rats; experiment: Oral glucose tolerance test (OGTT) in rats; single injection; 1 mg/kg; type: in vivo; set-up: Change in AUC (mg/dL*min): unit not given here; conditions: for Blood Glucose AUC (mg/dL*min) Mean: Exp. 1; for Change in AUC (mg/dL*min): Exp. 1, vs control group
Procedure: (§1) Animals were divided into three groups—a normal control group, a test group and a third semaglutide group, with 4 animals in each group. The animals were fasted for 12 hours before initiation of OGTT. To the test group animals, the Compound 1 was injected subcutaneously at 1 mg/kg dose. To the semaglutide group, a dose of 1 mg/kg was injected subcutaneously. After 22 hrs, 166 hrs and 334 hrs of subcutaneous injection of test drug or semaglutide, blood glucose was measured with blood glucose meter (time 0 measurements). All the animals were then given 2 g/kg of glucose solution orally. Blood glucose was measured at 20, 40, 60, 90 and 120 minutes following glucose challenge. Body weight and food intake was recorded. Blood glucose data was analyzed using Two way ANOVA followed by Bonferroni posttests using PRISM (Graph Pad version 5.03). Data of Blood glucose AUC0-120 min, was analyzed using t test.
as §1, with “animals,” for “animals, the”, “1, Compound 13 and Compound 16 were” for “1 was”, “compound” for “drug”

[2] = Food intake and body weight recorded in the rat OGTT study; type: in vivo, rats; conditions: 1 mg/Kg; for Body Weight Change (%) Mean / Food Consumption (g) Mean: Exp. 1
Procedure: as §1
as §1, with “animals,” for “animals, the”, “1, Compound 13 and Compound 16 were” for “1 was”, “compound” for “drug”

[3] = system: db/db mice (diabetic mouse model); experiment: Separate db/db diabetic mouse study, q2d*15 up to day 28, recovery period day 29 to day 45; type: in vivo; conditions: for Blood Glucose AUC (Day 30-37) % Change vs Control / Blood Glucose AUC (Day 30-37) (mg/dL*days) Mean / Blood Glucose AUC (Day 38-45) % Change vs Control / Blood Glucose AUC (Day 38-45) (mg/dL*days) Mean: recovery period
Procedure: The study was performed in similar manner as above on diabetic mouse model. The animals were divided into three treatment groups—a diabetic control group, a test group and a semaglutide treatment group. The representative compounds of the present disclosure, Compound 1, Compound 13 and Compound 16, were injected subcutaneously at 3.04 or 6.078 nM dose (every alternate day up to day 28 (q2d*15). The same dosage regimen was administered in semaglutide treatment group. Measurements of blood glucose levels and body weight were done daily. % HbA1c, Insulin was measured on Day 0, day 14 and day 29. Cumulative food intake and body weight change was calculated on day 14 and 29. % HbA1c, Insulin data was analyzed by two way ANOVA followed by Bonferroni's posttests using PRISM (Graph Pad version 5.03). Whereas Blood Glucose AUC, Body weight change and Cumulative food intake data was analyzed by one way ANOVA followed by Bonferroni's posttests using PRISM (Graph Pad version 5.03). From day 29 to day 45, animals were kept on recovery period during which no drug treatment was given. Blood Glucose and Body weight was measured during this period. On day 45, Body weight Changes, % HbA1c, Insulin was measured.

[4] = OGTT, 1 mg/Kg dose, after 24 hrs
[5] = earlier dose 3.04 nM (3.4 nM given for Compound 16)
[6] = recovery study, day 45, earlier dose 3.04 nM
[7] = recovery study, day 45, earlier dose 6.078 nM (6.0788 nM given for Compound 13)

Compound 7: SEQ ID NO: 05, Moiety B; liraglutide with 2nd amino acid Ala replaced with Aib and additional 32nd amino acid Leu (HXXXGTFTSDVSSYLXGQAAXEFXAWLVRGRGXX; (2)..(2) Xaa = Aib; (3)..(3) Xaa = absent.; (4)..(4) Xaa = Glu.; (16)..(16) Xaa = Glu.; (21)..(21) Lys is substituted; (24)..(24) Xaa is Ile.; (33)..(33) Xaa is Leu.; (34)..(34) Xaa is absent.)
% Glucose Reduction (Blood Glucose AUC0-120 min) [1, 4]: 71.9%
Comp/std Liraglutide (ratio of % glucose reduction) [1, 4]: 1.73
blood glucose lowering effect vs liraglutide ([1]; OGTT, 1 mg/Kg, at 24 hrs): significantly higher than liraglutide

Compound 13: SEQ ID NO: 05, acylated with Moiety C (HXXXGTFTSDVSSYLXGQAAXEFXAWLVRGRGXX; lipidated side chain; (2)..(2) Xaa = Aib; (3)..(3) Xaa = absent.; (4)..(4) Xaa = Glu.; (16)..(16) Xaa = Glu.; (21)..(21) Lys is substituted; (24)..(24) Xaa is Ile.; (33)..(33) Xaa is Leu.; (34)..(34) Xaa is absent.)
Blood Glucose AUC (mg/dL*min) Mean ([1]; OGTT, 1 mg/Kg, 22 hr): 2795.0 mg·min/dL
Change in AUC (mg/dL*min) ([1]; OGTT, 1 mg/Kg, 22 hr): −81.2
Blood Glucose AUC (mg/dL*min) Mean ([1]; OGTT, 1 mg/Kg, 168 hr): 6950.0 mg·min/dL
Change in AUC (mg/dL*min) ([1]; OGTT, 1 mg/Kg, 168 hr): −59.5
Blood Glucose AUC (mg/dL*min) Mean ([1]; OGTT, 1 mg/Kg, 336 hr): 11368.0 mg·min/dL
Change in AUC (mg/dL*min) ([1]; OGTT, 1 mg/Kg, 336 hr): −31.6
reduction in blood glucose AUC ([1]; after 168 hrs of injection, 1 mg/kg): about 60%
Body Weight Change (%) Mean ([2]; 48 h): −10.2%
Food Consumption (g) Mean ([2]; 48 h): 8.4 g
Body Weight Change (%) Mean ([2]; 154 h): 4.5%
Food Consumption (g) Mean ([2]; 154 h): 62.3 g
Body Weight Change (%) Mean ([2]; 324 h): 8.2%
Food Consumption (g) Mean ([2]; 324 h): 82.44 g
food consumed vs animals administered with semaglutide ([2]; text on Table 8): consumed significantly less food
Blood Glucose AUC (Day 0-29) % Change Vs Control ([3]; 3.04 nM, q2d*15): −43.86%
Blood Glucose AUC (Day 0-29) (mg/dL*days) Mean ([3]; 3.04 nM, q2d*15): 9515.4*** mg/dL*days
Body Weight Change Day 29, % Change vs Day 0 Mean ([3]; 3.04 nM, q2d*15): 1.2%
Cumulative Food Intake (g) Day 0-29 Mean ([3]; 3.04 nM, q2d*15): 75.2 g
Blood Glucose AUC (Day 0-29) % Change Vs Control ([3]; 6.078 nM, q2d*15): −50.13%
Blood Glucose AUC (Day 0-29) (mg/dL*days) Mean ([3]; 6.078 nM, q2d*15): 8451.7***## mg/dL*days
Body Weight Change Day 29, % Change vs Day 0 Mean ([3]; 6.078 nM, q2d*15): −1.1%
Cumulative Food Intake (g) Day 0-29 Mean ([3]; 6.078 nM, q2d*15): 70.4 g
% HbA1C Mean ([3]; Day 0, 3.04 nM, q2d*15): 7.7%
Insulin (ng/mL) Mean ([3]; Day 0, 3.04 nM, q2d*15): 21.7 ng/mL
% HbA1C Mean ([3]; Day 0, 6.078 nM, q2d*15): 7.83%
Insulin (ng/mL) Mean ([3]; Day 0, 6.078 nM, q2d*15): 26.2 ng/mL
% HbA1C Mean ([3]; Day 14, 3.04 nM, q2d*15): 6.6* %
Insulin (ng/mL) Mean ([3]; Day 14, 3.04 nM, q2d*15): 41.8 ng/mL
% HbA1C Mean ([3]; Day 14, 6.078 nM, q2d*15): 6.00 *** %
Insulin (ng/mL) Mean ([3]; Day 14, 6.078 nM, q2d*15): 61.2*** ng/mL
% HbA1C Mean ([3]; Day 29, 3.04 nM, q2d*15): 6.4 *** %
Insulin (ng/mL) Mean ([3]; Day 29, 3.04 nM, q2d*15): 54.4** ng/mL
% HbA1C Mean ([3]; Day 29, 6.078 nM, q2d*15): 5.64 *** %
Insulin (ng/mL) Mean ([3]; Day 29, 6.078 nM, q2d*15): 59.4*** ng/mL
HbA1c, blood glucose, food consumption and body weight vs control ([3]; about 3 nM and 6 nM dose): significant reduction
Blood Glucose AUC (Day 30-37) % Change vs Control [3, 5]: −27.93%
Blood Glucose AUC (Day 30-37) (mg/dL*days) Mean [3, 5]: 2588.7** mg/dL*days
Blood Glucose AUC (Day 38-45) % Change vs Control [3, 5]: −5.57%
Blood Glucose AUC (Day 38-45) (mg/dL*days) Mean [3, 5]: 3401.0 mg·days/dL
Blood Glucose AUC (Day 30-37) % Change vs Control ([3]; earlier dose 6.078 nM): −19.94%
Blood Glucose AUC (Day 30-37) (mg/dL*days) Mean ([3]; earlier dose 6.078 nM): 2875.7 mg·days/dL
Blood Glucose AUC (Day 38-45) % Change vs Control ([3]; earlier dose 6.078 nM): −6.68%
Blood Glucose AUC (Day 38-45) (mg/dL*days) Mean ([3]; earlier dose 6.078 nM): 3361.0 mg·days/dL
% HbA1C Mean [3, 6]: 7.5%
Delta HbA1C vs. DC [3, 6]: −1.0
Insulin (ng/mL) Mean [3, 6]: 31.2 ng/mL
% HbA1C Mean [3, 7]: 7.3%
Delta HbA1C vs. DC [3, 7]: −1.2
Insulin (ng/mL) Mean [3, 7]: 34.3 ng/mL
Body Weight % Change vs Day 45 Mean ([3]; recovery study, earlier dose 3.04 nM): 6.6%
Body Weight % Change vs Day 45 Mean ([3]; recovery study, earlier dose 6.078 nM (6.0788 nM given for Compound 13)): 5.5%
